According to patent US10858367B2, “Compounds” (GLAXOSMITHKLINE INTELLECTUAL PROPERTY DEVELOPMENT LIMITED, priority 2017, dated 2020):
Counter-ions that a name gives are not always drawn.

Assays:
[1] = target: T1, full length G2019 human LRRK2 (Homo sapiens, UniProt Q5S007, R50H); experiment: Full length G2019 human LRRK2 Inhibition Mass Spectrometry assay; format: biochemical; settings: 25 nM LRRK2 enzyme, 25 uM LRRKtide, 2 mM ATP; RapidFire mass spectrometry; read-out: pIC50 in the full length G2019 human LRRK2 Inhibition Mass Spectrometry assay (converted)
T1 construct: made in house; host or cells: HEK293 6E cells transduced with BacMam virus (virus generated in Sf9 cells)
T1 sequence (Q5S007 with tags, fused parts or gaps R50H): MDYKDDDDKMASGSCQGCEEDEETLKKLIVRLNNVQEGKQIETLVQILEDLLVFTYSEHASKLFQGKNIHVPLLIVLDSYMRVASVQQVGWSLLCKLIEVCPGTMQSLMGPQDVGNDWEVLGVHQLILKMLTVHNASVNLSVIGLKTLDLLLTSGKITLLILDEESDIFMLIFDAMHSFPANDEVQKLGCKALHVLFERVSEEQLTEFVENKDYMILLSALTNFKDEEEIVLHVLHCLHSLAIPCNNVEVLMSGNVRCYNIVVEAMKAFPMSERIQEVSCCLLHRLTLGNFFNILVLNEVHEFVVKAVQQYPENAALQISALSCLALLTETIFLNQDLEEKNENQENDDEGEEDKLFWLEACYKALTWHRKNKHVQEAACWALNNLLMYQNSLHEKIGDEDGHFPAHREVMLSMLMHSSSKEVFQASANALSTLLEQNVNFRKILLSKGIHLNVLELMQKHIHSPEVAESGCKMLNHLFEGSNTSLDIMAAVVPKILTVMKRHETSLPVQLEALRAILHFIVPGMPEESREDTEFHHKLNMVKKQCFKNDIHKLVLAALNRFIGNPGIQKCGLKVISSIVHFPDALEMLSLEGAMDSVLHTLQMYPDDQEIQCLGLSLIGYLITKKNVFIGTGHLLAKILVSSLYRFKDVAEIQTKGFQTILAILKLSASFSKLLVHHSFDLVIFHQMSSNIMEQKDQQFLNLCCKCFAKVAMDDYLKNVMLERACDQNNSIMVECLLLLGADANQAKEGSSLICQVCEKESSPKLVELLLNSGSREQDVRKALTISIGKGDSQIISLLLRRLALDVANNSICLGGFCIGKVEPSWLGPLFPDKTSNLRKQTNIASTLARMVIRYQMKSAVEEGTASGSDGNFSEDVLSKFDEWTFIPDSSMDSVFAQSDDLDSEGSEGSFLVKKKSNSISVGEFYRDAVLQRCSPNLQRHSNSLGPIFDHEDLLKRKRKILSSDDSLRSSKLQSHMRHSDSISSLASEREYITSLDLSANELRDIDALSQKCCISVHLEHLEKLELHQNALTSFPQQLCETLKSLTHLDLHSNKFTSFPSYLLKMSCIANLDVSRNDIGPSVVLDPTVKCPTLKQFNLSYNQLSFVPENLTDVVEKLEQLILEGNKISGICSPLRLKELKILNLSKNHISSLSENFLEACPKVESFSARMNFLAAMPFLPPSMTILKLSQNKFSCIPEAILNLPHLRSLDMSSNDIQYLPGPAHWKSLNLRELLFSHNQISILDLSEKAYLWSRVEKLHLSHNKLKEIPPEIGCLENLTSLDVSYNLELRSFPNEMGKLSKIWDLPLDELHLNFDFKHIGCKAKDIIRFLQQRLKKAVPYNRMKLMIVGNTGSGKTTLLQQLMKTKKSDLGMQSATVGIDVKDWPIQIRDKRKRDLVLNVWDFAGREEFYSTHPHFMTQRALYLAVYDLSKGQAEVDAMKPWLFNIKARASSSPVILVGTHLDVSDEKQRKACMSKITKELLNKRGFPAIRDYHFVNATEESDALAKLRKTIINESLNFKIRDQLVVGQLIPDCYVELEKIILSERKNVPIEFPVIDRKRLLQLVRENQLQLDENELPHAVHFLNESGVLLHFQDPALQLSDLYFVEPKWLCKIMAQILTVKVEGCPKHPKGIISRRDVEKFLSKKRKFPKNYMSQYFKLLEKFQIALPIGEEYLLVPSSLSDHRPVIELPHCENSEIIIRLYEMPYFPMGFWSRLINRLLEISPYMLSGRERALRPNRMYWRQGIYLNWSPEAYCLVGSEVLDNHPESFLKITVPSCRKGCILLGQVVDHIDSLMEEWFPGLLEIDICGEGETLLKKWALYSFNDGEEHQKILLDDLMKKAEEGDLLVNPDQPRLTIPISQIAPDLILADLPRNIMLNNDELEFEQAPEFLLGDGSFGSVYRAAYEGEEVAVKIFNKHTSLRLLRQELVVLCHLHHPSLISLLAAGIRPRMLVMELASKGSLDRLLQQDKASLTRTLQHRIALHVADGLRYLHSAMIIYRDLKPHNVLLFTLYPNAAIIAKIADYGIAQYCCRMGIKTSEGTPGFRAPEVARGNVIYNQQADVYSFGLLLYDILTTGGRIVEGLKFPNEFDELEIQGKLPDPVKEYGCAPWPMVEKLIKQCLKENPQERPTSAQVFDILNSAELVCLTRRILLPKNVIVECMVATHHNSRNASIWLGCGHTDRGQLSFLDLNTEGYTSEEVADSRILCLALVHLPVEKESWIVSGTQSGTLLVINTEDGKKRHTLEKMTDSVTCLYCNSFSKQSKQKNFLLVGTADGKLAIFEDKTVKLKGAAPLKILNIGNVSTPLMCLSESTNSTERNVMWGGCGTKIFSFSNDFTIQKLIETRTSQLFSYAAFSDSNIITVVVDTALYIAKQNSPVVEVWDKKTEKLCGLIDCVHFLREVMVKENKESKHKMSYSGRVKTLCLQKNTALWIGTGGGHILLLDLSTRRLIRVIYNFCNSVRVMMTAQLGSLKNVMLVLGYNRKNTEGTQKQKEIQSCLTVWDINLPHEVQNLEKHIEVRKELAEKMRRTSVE
Description: a. Full Length G2019 Human LRRK2 Inhibition Mass Spectrometry Assay
This assay for Leucine Rich Repeat Kinase 2 (LRRK2) inhibition is based on the direct measurement of the peptide ‘LRRKtide’ (LRRKtide: RLGRDKYKT*LRQIRQ and “*” refers to the site of phosphorylation.) and phosphorylated ‘LRRKtide’ using a high throughput RapidFire mass spectrometry assay. Inhibitors are compounds that reduce the conversion of LRRKtide to phospho-LRRKtide.
Human G2019 LRRK2 Plasmid Preparation
Primers used for PCR cloning: • pHTBV-F:SEQ ID No: 1 • LRRK2 wt-F1:SEQ ID No: 2 • LRRK2 wt-R1: SEQ ID No: 3 • LRRK2 wt-F2: SEQ ID No: 4 • LRRK2 wt-R2: SEQ ID No: 5 • LRRK2 wt-F3:SEQ ID No: 6 • pHTBV-R: SEQ ID No: 7 pHTBV1-N-Flag-hu LRRK2 was generated by PCR amplifying the full length LRRK2 sequence with N terminal Flag tag from pcDNA3.1(+)_Human_LRRK2 (NCBI Reference Sequence: NP_940980.3) with the primers described above, and cloned into pHTBV1mcs3 vector between BamHI and KpnI sites.
The G2019 full length Flag-LRRK2 coding sequence is SEQ ID No: 8.
The translated amino acid sequence for human G2019 full length N terminal flag tagged LRRK2 protein is SEQ ID No: 9.
Protein Expression & Purification a) Expression of Flag Tagged Full Length G2019 Human LRRK2
HEK293 6E cells were incubated in a 37° C. incubator with a humidified atmosphere of 5% CO2 on an orbital shaker rotating at 110 rpm. On the day of transduction, the cell viability was higher than 98% and the cell density was in the range of 1×10^6˜1.5×10^6 cells/ml. HEK293 6E cells were centrifuged at 1,000 rpm for 10 min, and then the cells were resuspended in fresh Freestyle 293 expression medium (Invitrogen: 12338) with 0.1% F-68(Invitrogen: 24040-032) but without antibiotics (G418) at density of 1×10^6 cells/ml. BacMam virus with Flag-hu LRRK2 (genotypically normal) gene was centrifuged at 40,000 g for 2 hours, then resuspended in fresh Freestyle 293 expression medium. The resuspended virus was added into the cells in at MOI of 10. The cells were incubated in a 37° C. incubator with a humidified atmosphere of 5% CO2 in air on an orbital shaker rotating at 110 rpm. Cultures were harvested at approximately 48 hours post-transduction by centrifugation at 4,000 rpm for 20 min and pellets were frozen for purification. […]
b) Purification of Flag Tagged Full Length G2019 Human LRRK2
The suspended cells were lysed by sonication on ice for 30 min (2 secs on/4 sec off, 20% amplitude), and centrifuged at 10,000 rpm for 30 minutes at 4° C. The supernatant was incubated with 1 mL per litre of cell culture of anti-Flag magnetic beads (Sigma-Aldrich: M8823) at 4° C. for 3 hours, then the beads were washed by 5 mL (5 column volume) binding buffer (50 mM Tris pH7.5@ 4 C, 500 mM NaCl, 0.5 mM EDTA, 0.1% TritonX-100, 10% glycerol, freshly add 2 mM DTT) for three times. The Flag tagged LRRK2 proteins were eluted by Elution buffer (50 mM Tris pH7.5@ 4 C, 500 mM NaCl, 0.5 mM EDTA, 0.1% TritonX-100, 10% glycerol, freshly add 2 mM DTT, 250 ug/ml Flag peptide (Sigma-Aldrich:F3290)) at 4° C. for 2 hours. Flag peptide was removed by Zeba Spin Desalting Columns, 7K MWCO (Thermo-Fisher: 89893) and the buffer of eluted LRRK2 proteins was exchanged into Storage Buffer (50 mM Tris pH7.5@4 C, 150 mM NaCl, 0.5 mM EDTA, 0.02% Triton X-100, 2 mM DTT and 50% Glycerol) using Amicon Ultra Centrifugal Filter Units (100 kD) (Merck: UFC910096). Fractions containing LRRK2 proteins were pooled, aliquoted and stored at −80° C. Protein concentration was determined by Bradford protein assay, and protein purity was analyzed by NuPAG Novex 4-12% Bis-Tris Protein Gels (Invitrogen: NP0322BOX).
Assay Protocol • 1) A 10 mM test compound was dissolved in 100% DMSO and serially diluted 1 in 4. 100 nL of this dilution series was then added to a 384 well, v bottom polypropylene plate, excluding columns 6 and 18. 100 nL of DMSO was added to columns 6 and 18 as controls wells. […]

[2] = target: T2, LRRK2 Ser935 phosphorylation in SH-SY5Y cells over-expressing recombinant full length LRRK2 (Homo sapiens, UniProt Q5S007); experiment: Recombinant cellular LRRK2 AlphaScreen assay; format: cell-based; settings: human neuroblastoma SH-SY5Y cells, BacMam full length LRRK2, 60 minutes with compound, read-out: pIC50 in the recombinant cellular LRRK2 AlphaScreen assay (converted)
T2 construct: A BacMam virus expressing full length recombinant LRRK2 was purchased from Invitrogen; host or cells: SH-SY5Y human neuroblastoma cells transduced with BacMam LRRK2 virus
T2 sequence (Q5S007 whole entry): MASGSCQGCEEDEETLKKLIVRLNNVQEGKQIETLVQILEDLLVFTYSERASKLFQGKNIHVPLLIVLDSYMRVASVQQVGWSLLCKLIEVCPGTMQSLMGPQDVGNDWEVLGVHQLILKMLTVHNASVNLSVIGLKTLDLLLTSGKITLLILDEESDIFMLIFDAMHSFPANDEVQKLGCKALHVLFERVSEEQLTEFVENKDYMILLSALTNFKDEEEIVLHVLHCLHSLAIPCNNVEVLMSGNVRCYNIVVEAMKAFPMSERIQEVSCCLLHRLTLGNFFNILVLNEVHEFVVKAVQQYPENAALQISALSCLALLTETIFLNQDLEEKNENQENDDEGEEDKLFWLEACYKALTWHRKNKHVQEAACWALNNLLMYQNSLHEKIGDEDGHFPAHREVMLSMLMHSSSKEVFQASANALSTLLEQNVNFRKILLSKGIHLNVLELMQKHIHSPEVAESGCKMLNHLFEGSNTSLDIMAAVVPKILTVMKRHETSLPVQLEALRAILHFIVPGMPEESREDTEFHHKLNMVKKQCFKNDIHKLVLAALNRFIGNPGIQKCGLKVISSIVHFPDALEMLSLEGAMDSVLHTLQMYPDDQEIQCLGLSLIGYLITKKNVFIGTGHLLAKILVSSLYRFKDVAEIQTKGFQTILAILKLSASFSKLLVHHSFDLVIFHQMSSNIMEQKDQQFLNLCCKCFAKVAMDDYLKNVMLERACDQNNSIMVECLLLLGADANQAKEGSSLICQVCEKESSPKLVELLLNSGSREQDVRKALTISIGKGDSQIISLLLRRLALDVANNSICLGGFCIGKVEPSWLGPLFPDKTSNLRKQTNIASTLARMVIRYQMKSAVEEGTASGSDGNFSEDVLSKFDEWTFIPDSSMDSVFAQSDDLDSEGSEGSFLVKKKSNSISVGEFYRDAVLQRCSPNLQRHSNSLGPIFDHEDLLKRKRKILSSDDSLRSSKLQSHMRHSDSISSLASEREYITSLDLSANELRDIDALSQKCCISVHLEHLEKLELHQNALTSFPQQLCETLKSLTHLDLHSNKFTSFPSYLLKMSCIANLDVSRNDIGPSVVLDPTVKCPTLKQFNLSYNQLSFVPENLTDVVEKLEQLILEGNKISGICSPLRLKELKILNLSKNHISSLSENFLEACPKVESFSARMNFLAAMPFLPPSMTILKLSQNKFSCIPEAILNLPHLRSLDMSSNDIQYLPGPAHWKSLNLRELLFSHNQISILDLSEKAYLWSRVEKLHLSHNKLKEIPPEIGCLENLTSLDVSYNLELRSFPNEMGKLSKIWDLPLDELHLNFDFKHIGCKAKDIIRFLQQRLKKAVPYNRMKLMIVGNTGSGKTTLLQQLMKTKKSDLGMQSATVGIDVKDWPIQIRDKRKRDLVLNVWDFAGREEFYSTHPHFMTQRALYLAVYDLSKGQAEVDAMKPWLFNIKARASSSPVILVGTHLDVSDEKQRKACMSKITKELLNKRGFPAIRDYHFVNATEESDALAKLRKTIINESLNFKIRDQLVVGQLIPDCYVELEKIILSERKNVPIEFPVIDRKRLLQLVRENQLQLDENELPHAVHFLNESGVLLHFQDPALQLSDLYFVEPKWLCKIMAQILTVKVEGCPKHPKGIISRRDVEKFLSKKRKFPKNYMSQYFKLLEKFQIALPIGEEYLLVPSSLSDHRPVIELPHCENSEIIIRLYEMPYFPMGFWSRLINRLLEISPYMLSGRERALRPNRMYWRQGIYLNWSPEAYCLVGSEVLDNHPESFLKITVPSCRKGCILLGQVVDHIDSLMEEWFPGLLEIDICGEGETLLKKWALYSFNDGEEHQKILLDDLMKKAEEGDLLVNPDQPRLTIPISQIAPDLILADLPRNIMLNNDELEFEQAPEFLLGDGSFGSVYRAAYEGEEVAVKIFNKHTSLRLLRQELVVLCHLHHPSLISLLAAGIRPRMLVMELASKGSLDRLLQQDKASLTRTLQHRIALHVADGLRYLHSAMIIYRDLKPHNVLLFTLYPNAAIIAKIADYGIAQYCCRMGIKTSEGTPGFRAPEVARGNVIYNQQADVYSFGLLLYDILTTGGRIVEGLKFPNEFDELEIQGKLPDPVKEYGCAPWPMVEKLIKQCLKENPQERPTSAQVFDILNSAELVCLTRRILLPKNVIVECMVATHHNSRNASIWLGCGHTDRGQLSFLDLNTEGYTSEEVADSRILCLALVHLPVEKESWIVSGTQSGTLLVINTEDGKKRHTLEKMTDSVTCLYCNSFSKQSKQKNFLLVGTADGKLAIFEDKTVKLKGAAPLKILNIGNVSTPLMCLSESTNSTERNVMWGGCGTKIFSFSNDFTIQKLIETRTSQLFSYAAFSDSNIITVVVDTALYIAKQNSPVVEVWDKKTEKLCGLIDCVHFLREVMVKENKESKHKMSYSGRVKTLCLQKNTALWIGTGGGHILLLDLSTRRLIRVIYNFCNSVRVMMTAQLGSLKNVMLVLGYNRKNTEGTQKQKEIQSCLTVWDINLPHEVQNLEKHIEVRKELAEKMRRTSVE
Procedure, shortened: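 SH-SY5Y cells transduced with BacMam full-length human LRRK2 (MOI 50) for 24 h, then treated with compound (top final 10 μM) for 60 min at 37° C. Lysate pSer935 LRRK2 quantified by AlphaScreen using anti-pS935 and total-LRRK2 antibodies. Values from sigmoidal dose-response fit.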

Row | Structure (SMILES) | IC50 [1] | IC50 [2]
1 | COc1nc(N2C[C@@]3(CO)C[C@@H]2CO3)cc(-n2ncc3cc(C)c(C4CCOCC4)cc32)n1 [Example E178, ((1R,4R)-5-(2-methoxy-6-(5-methyl-6-(tetrahydro-2H-pyran-4-yl)-1H-indazol-1-yl)pyrimidin-4-yl)-2-oxa-5-azabicyclo[2.2.1]heptan-1-yl)methanol] | ≤ 10 nM | ≤ 10 nM
2 | Cc1nc(N2C[C@H]3C[C@@H]2CO3)cc(-n2ncc3cc(C)c(C4CCN(CCC(=O)O)CC4)cc32)n1 [Example E162, 3-(4-(1-(6-((1R,4R)-2-oxa-5-azabicyclo[2.2.1]heptan-5-yl)-2-methylpyrimidin-4-yl)-5-methyl-1H-indazol-6-yl)piperidin-1-yl)propanoic Acid] | ≤ 100 nM | ≤ 1000 nM
3 | COc1nc(N2C[C@@H]3C[C@H]2CO3)cc(-n2ncc3cc(C)c(C4CCN(CCC(=O)O)CC4F)cc32)n1 (single isomer, unassigned) [Example E160] | ≤ 100 nM | ≤ 10 nM
4 | COc1nc(N2CC3(CO)CC2CO3)cc(-n2ncc3cc(C)c(C4CCN(C5COC5)CC4)cc32)n1 (centres unmarked) [Example E167, (5-(2-methoxy-6-(5-methyl-6-(1-(oxetan-3-yl)piperidin-4-yl)-1H-indazol-1-yl)pyrim-idin-4-yl)-2-oxa-5-azabicyclo[2.2.1]heptan-1-yl)methanol] | ≤ 10 nM | ≤ 10 nM
5 | Cc1nc(N2C[C@]3(CO)C[C@H]2CO3)cc(-n2ncc3cc(C)c(C4CCN([C@H]5CCOC5)CC4)cc32)n1 [Example E143, ((1S,4S)-5-(2-methyl-6-(5-methyl-6-(1-((S)-tetrahydrofuran-3-yl)piperidin-4-yl)-1H-indazol-1-yl)pyrimidin-4-yl)-2-oxa-5-azabicyclo[2.2.1]heptan-1-yl)methanol] | ≤ 100 nM | ≤ 1000 nM

More lines, now with the values ahead:

Row | IC50 [1] | IC50 [2] | Structure (SMILES)
6 | ≤ 100 nM | ≤ 10 nM | COc1nc(N2C[C@H]3C[C@@H]2CO3)cc(-n2ncc3cc(C)c(C4CCN(CCS(C)(=O)=O)CC4)cc32)n1 [Example E174, (1R,4R)-5-(2-methoxy-6-(5-methyl-6-(1-(2-(methylsulfonyl)ethyl)piperidin-4-yl)-1H-indazol-1-yl)pyrimidin-4-yl)-2-oxa-5-azabicyclo[2.2.1]heptane]
7 | ≤ 100 nM | ≤ 1000 nM | COc1nc(N2C[C@H]3C[C@@H]2CO3)cc(-n2ncc3cc(C)c(C4C5CN([C@H]6CCOC6)CC54)cc32)n1 (stereo partly drawn) [Example E175, (1R,4R)-5-(2-methoxy-6-(5-methyl-6-(3-((S)-tetrahydrofuran-3-yl)-3-azabicyclo[3.1.0]hexan-6-yl)-1H-indazol-1-yl)pyrimidin-4-yl)-2-oxa-5-azabicyclo[2.2.1]heptane]
8 | ≤ 100 nM | ≤ 10 nM | COc1nc(N2C[C@H]3C[C@@H]2CO3)cc(-n2ncc3cc(C)c(C4CCN(CCC(=O)O)CC4F)cc32)n1 (single isomer, unassigned) [Example E158]
9 | ≤ 100 nM | ≤ 1000 nM | COc1nc(N2C[C@H]3C[C@@H]2CO3)cc(-n2ncc3cc(C)c(C4CCN(CCC(=O)O)CC4)cc32)n1 [Example E164, 3-(4-(1-(6-((1R,4R)-2-oxa-5-azabicyclo[2.2.1]heptan-5-yl)-2-methoxypyrimidin-4-yl)-5-methyl-1H-indazol-6-yl)piperidin-1-yl)propanoic Acid]
10 | ≤ 100 nM | ≤ 1000 nM | Cc1nc(N2CC3OCC2C3O)cc(-n2ncc3cc(C)c(C4CCN([C@H]5CCOC5)CC4)cc32)n1 (single isomer, unassigned) [Example E176, TFA Salt]
